Measured values as given in PubChem BioAssay AID2060906 (Molecular Pharmacology Branch, DTP, NCI, 2025).

System: 485176-168-R4-J1-PDC complex spheroid growth
Test: Anticancer human tumor 485176-168-R4-J1-PDC patient-derived pancreatic adenocarcinoma cell line growth inhibition [RAS]
Conditions: for IC50: curve of first compound; for viability, T/C: stronger effect = lower value
Outline: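 Multi-cell-type spheroids: tumor cells plus HUVEC endothelial cells and mesenchymal stem cells. RAS-pathway inhibitors were combined with targeted agents, each dosed in half-log steps down from clinical Cmax, or from 10 microM when Cmax was unknown.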
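Note: spheroids exposed to compounds for seven days before readout.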
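Throughout, for viability, T/C: luminescence viability expressed relative to DMSO vehicle wells set as 100%.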

IC50 (second compound 0.000949 µM): > 10 µM
IC50 (second compound 0.003 µM): > 10 µM
IC50 (second compound 0.00949 µM): > 10 µM
IC50 (second compound 0.03 µM): > 10 µM
IC50 (second compound 0.0949 µM): > 10 µM
IC50 (second compound 0.3 µM): > 10 µM
SMILES: Cc1nc(N2CCC3(CC2)COC(C)C3N)c(CO)nc1Sc1ccnc(N)c1Cl (configuration not stated) + CCn1c(-c2cc(N3CCN(C)CC3)cnc2C(C)OC)c2c3cc(ccc31)-c1csc(n1)CC(NC(=O)C1CC1C)C(=O)N1CCCC(N1)C(=O)OCC(C)(C)C2
viability, T/C (second compound 0.000949 µM, first compound 0.0316 µM): 90.6%
viability, T/C (second compound 0.000949 µM, first compound 0.1 µM): 83.5%
viability, T/C (second compound 0.000949 µM, first compound 0.316 µM): 84.1%
viability, T/C (second compound 0.000949 µM, first compound 1 µM): 72.8%
viability, T/C (second compound 0.000949 µM, first compound 3.16 µM): 77.5%
viability, T/C (second compound 0.000949 µM, first compound 10 µM): 75.7%
viability, T/C (second compound 0.003 µM, first compound 0.0316 µM): 82.7%
viability, T/C (second compound 0.003 µM, first compound 0.1 µM): 68.7%
viability, T/C (second compound 0.003 µM, first compound 0.316 µM): 87.8%
viability, T/C (second compound 0.003 µM, first compound 1 µM): 83.6%
viability, T/C (second compound 0.003 µM, first compound 3.16 µM): 83.8%
viability, T/C (second compound 0.003 µM, first compound 10 µM): 82.8%
viability, T/C (second compound 0.00949 µM, first compound 0.0316 µM): 94.3%
viability, T/C (second compound 0.00949 µM, first compound 0.1 µM): 80.1%
viability, T/C (second compound 0.00949 µM, first compound 0.316 µM): 80.4%
viability, T/C (second compound 0.00949 µM, first compound 1 µM): 78.5%
viability, T/C (second compound 0.00949 µM, first compound 3.16 µM): 77.2%
viability, T/C (second compound 0.00949 µM, first compound 10 µM): 68%
viability, T/C (second compound 0.03 µM, first compound 0.0316 µM): 77.1%
viability, T/C (second compound 0.03 µM, first compound 0.1 µM): 74.6%
viability, T/C (second compound 0.03 µM, first compound 0.316 µM): 94.7%
viability, T/C (second compound 0.03 µM, first compound 1 µM): 82.5%
viability, T/C (second compound 0.03 µM, first compound 3.16 µM): 90%
viability, T/C (second compound 0.03 µM, first compound 10 µM): 63.4%
viability, T/C (second compound 0.0949 µM, first compound 0.0316 µM): 85.2%
viability, T/C (second compound 0.0949 µM, first compound 0.1 µM): 93.2%
viability, T/C (second compound 0.0949 µM, first compound 0.316 µM): 59.9%
viability, T/C (second compound 0.0949 µM, first compound 1 µM): 75%
viability, T/C (second compound 0.0949 µM, first compound 3.16 µM): 80.7%
viability, T/C (second compound 0.0949 µM, first compound 10 µM): 70.4%
viability, T/C (second compound 0.3 µM, first compound 0.0316 µM): 78.8%
viability, T/C (second compound 0.3 µM, first compound 0.1 µM): 72.9%
viability, T/C (second compound 0.3 µM, first compound 0.316 µM): 63.2%
viability, T/C (second compound 0.3 µM, first compound 1 µM): 56.9%
viability, T/C (second compound 0.3 µM, first compound 3.16 µM): 76.5%
viability, T/C (second compound 0.3 µM, first compound 10 µM): 65.3%
